Reference: a melting point compilation (Tetko et al.; mined from patent text by program, amines drawn as free bases though some values may be those of a salt)

With O=C(O)CCCc1cc2nc(Cl)ccc2n1S(=O)(=O)c1ccc2nccnc2c1 the melting point was 103 to 106 °C.
N#Cc1cc2c3ccccc3[nH]c(=O)n2n1 showed a melting point of 302 to 304 °C.
Cc1ccc(N)cc1NC(=O)c1ccc(O)cc1 showed a melting point of 277 to 278 °C.
Compound COc1ccc2[nH]c(-c3nc(C)no3)cc2c1 has a melting point of 141 to 142 °C.
In the case of C#CCON=Cc1cc(Cl)ccc1OC(=O)NC, the melting point was 97 to 100 °C.
Compound COc1cccc(S(=O)(=O)Nc2nccnc2OC)c1 has a melting point of 133 to 134 °C.
With COC(=O)c1cncn1C1c2ccccc2C(Br)(Br)C1(C)C (stereo not drawn) the melting point was 138 °C.
In the case of O=C1CNc2ccc(F)cc2O1, the melting point was 199 °C.
In the case of COc1c(C)cc(Cc2ccc3c(c2)OCO3)cc1C, the melting point was 49 °C.
CCOC(=O)c1[nH]nc(C)c1[N+](=O)[O-] showed a melting point of 81 to 86 °C.
For CCOC(=O)c1ccc(Oc2ccc(C(C)=C3SCCCS3)cc2)cc1, the melting point was 57 to 58 °C.
In the case of COC(=O)c1ccc(-c2nc(-c3ccc(C(C)C)cc3)cs2)cc1, the melting point was 134 to 135 °C.
For C=CCNC1=NN=C(c2ccc(Cl)cc2Cl)CS1, the melting point was 188 to 189 °C.
ICCCCCCOc1ccc(C2=C(c3ccccc3)CCCc3cc(OC4CCCCO4)ccc32)cc1 (stereo not drawn) showed a melting point of 108 to 110 °C.
In the case of COC(=O)c1n[nH]c(=O)c2cc(OC)ccc12, the melting point was 222 to 225 °C.
Cc1cc(SC2CC(=O)N(c3ccccc3)C2=O)cc(C(C)(C)C)c1N (stereo not drawn) gave a melting point of 126 to 128 °C.
Compound O=C(Nc1cccnc1)NC(CS)Cc1ccccc1 (single isomer, unassigned; (+)) has a melting point of 149 °C.
In the case of COCC1CN(C(=O)c2cc(OC)c(OC)c(OC)c2)CCN1C(=O)c1csc(-c2ccc(OC)c(OC)c2)n1 (stereo not drawn), the melting point was 149 to 151 °C.
Work on Cc1ccc(C(=O)NC(CF)NC(=S)Nc2cccc([N+](=O)[O-])c2)cc1 (stereo not drawn) yielded a melting point of 148 to 155 °C.
In the case of CC(C)=NOCC(=O)O, the melting point was 76 °C.
With CC(=O)ON1C(C)(C)CC(OC(=O)CCCCCCCCC(=O)OC2CC(C)(C)N(OC(C)=O)C(C)(C)C2)CC1(C)C the melting point was 81 to 94 °C.
With O=C1c2ccccc2S(=O)(=O)N1CSc1nnc(SCCN2CCOCC2)s1 the melting point was 129 to 131 °C.
For N#Cc1c(N2CCN(C(=O)c3ccco3)CC2)c2cc(F)cnc2[nH]c1=O, the melting point was 312 °C.
COc1cc(C)c(C2=C(C)CN(O)C=C2C)c(C)c1 gave a melting point of 194 to 195 °C.
Compound CS(=O)(=O)OC[C@H]1CCn2c(cc3ccccc32)C1 has a melting point of 114 to 115 °C.
CN(CC(=C1NCCCS1)[N+](=O)[O-])c1ccccc1 showed a melting point of 105 to 106 °C.
Nc1cnc(-c2cc(Cl)cc(Cl)c2Cl)c(N)n1 showed a melting point of 178 to 180 °C.
COc1ccc(C(=O)C[N+](=O)[O-])c(O)c1 showed a melting point of 138 to 140 °C.
CN1C(=O)CC[C@]2(C)c3ccc(-c4cnc5ccccc5c4)cc3CC[C@@H]12 gave a melting point of 180 to 185 °C.
Work on ON=C(c1ccc2c(c1)OCO2)C(F)(F)F yielded a melting point of 96 °C.
For O=C(O)c1nc2n(n1)-c1cccnc1N(c1ccc(Cl)cc1)C2, the melting point was 234 to 237 °C.
For C=CC[C@H](C(N)=O)[C@@H](CC(C)C)C(=O)NC1N=C(N(C)C)c2ccccc2N(C)C1=O (stereo partly drawn), the melting point was 230 to 232 °C.
Cc1ccc2c(N)nc(-c3cccc4ccccc34)cc2c1 gave a melting point of 170 °C.
For CCNC(=O)NCc1ccc(/C=C/C(c2cc(Cl)cc(Cl)c2)C(F)(F)F)cc1Cl (stereo not drawn), the melting point was 177 to 178 °C.
For COc1cccc(-n2nc(C)c3ccc([N+](=O)[O-])cc32)c1C#N, the melting point was 244 °C.
Compound CN(Cc1ccc(NC(=O)C2=Cc3cc(-c4ccc5c(c4)OCCO5)ccc3S(=O)(=O)CC2)cc1)C1CCOCC1 has a melting point of 248 to 251 °C.
CCOC(=O)NCC(C)C(NC(=O)OCC)NC(=O)OCC (stereo not drawn) showed a melting point of 138 to 140 °C.
In the case of CCCCCCCCCc1ccc(C(CCCCC(=O)O)SCCC(=O)O)cc1 (stereo not drawn), the melting point was 61 to 62 °C.
For O=C(O)c1cc(S(=O)(=O)Cl)cc(S(=O)(=O)Cl)c1O, the melting point was 185 to 187 °C.
OCc1ccc2ccc3cccc4ccc1c2c34 showed a melting point of 125 to 126 °C.
Work on Clc1ccc2c(c1)c(-c1ccccc1)cc1nncn12 yielded a melting point of 265 to 266 °C.
For CN(C)c1nc(N(C)C)c2ncn(Cc3ccccc3F)c2n1, the melting point was 127 °C.
Cn1cnc2ncnn2c1=S gave a melting point of 238 to 240 °C.
O=C1c2ccccc2C(=O)N1CC(=C(Br)Br)c1ccccc1 gave a melting point of 154 to 155 °C.
With CC(=O)N(Cc1cc(Br)cc2[nH]c(=O)c(=O)[nH]c12)CP(=O)(O)O the melting point was greater than 280 °C.
Compound CN1CCN(c2ccc(S(=O)(=O)Oc3cccc([N+](=O)[O-])c3)cc2)C1=O has a melting point of 167 to 169 °C.
In the case of O=C(CCCCN1CCCC1)NNC(=O)N1Cc2ccccc2Oc2ccc(Cl)cc21, the melting point was 133 to 135 °C.
Compound COC(=O)C1=C(C)Nc2ccnc(OC(C)C)c2C1c1c(Cl)cccc1Cl (stereo not drawn) has a melting point of 245 °C.
Compound CC(C)(C)OC(=O)N1CCC(CC[C@@H]2CCCNC2=O)CC1 has a melting point of 110 to 111 °C.
With O=C(O)COc1nc2cc(Cl)c3cccnc3c2o1 the melting point was 214 to 215 °C.
Compound CC(=O)NCCSc1c(Cl)cc(N)c(C)c1N has a melting point of 111 °C.
NC1(C(=O)O)C=CC(Br)=C(F)C1 (stereo not drawn) gave a melting point of 180 °C.
COC(=O)c1ccccc1C(=O)Nc1cc(C(F)(F)C(F)(F)F)on1 gave a melting point of 97 to 100 °C.
CC(C)(C)OC(=O)NC1CN(c2c(F)cc3c(=O)c(C(=O)O)cn(C4CC4)c3c2Cl)CC12CC2 (stereo not drawn) showed a melting point of 205 to 207 °C.
CC(C)C(=O)Oc1n[nH]c(=O)c2nc3cc(Cl)ccc3c(O)c12 gave a melting point of 328 to 335 °C.
With COc1cccc2c1CCC(CN1C(=O)c3ccccc3C1=O)C2 (stereo not drawn) the melting point was 143 to 144 °C.
Work on CC(=O)Nc1nc(N(C(C)=O)C(C)=O)c(CC=O)c(=O)[nH]1 yielded a melting point of 169 to 170 °C.
With O=c1cc(-c2cccc(Cl)c2)c2cc(Br)ccc2[nH]1 the melting point was 105 °C.
Compound COC(=O)c1cc2c3cc([N+](=O)[O-])ccc3n(C)c2s1 has a melting point of 269 to 271 °C.
Work on NS(=O)(=O)c1cc(C(=O)CCCCCl)cc2c1CCC2 yielded a melting point of 117 to 119 °C.
In the case of COc1cc(CCC2OC(=O)NC2=O)ccc1OCc1nc(-c2ccccc2)oc1C (stereo not drawn), the melting point was 194 to 195 °C.
Compound O=C(O)CNC(=O)c1ncc2c(Cl)cccc2c1O has a melting point of 232 °C.
CCCc1nc2c(N)nc3ccccc3c2n1CCCC(=O)N1CCOCC1 showed a melting point of 200 to 202 °C.
O=C(NCCCN1CC=C(c2ccc(Cl)cc2)CC1)C(F)(F)F showed a melting point of 105 to 107 °C.
For C[C@@H]1O[C@](/C=C/C2CC2)(C(F)(F)F)c2cc(Cl)ccc2NC1=O (relative stereo), the melting point was 171 to 172 °C.
O=C(Nc1ccc(Br)cc1)Oc1ccc2c(c1)CCCN2 showed a melting point of 198 °C.
Work on C#CCNc1nc(N(C2CC(C)(C)N(O)C(C)(C)C2)C2CC(C)(C)N(O)C(C)(C)C2)nc(N(C2CC(C)(C)N(O)C(C)(C)C2)C2CC(C)(C)N(O)C(C)(C)C2)n1 yielded a melting point of 249 to 252 °C.
In the case of O=C(COc1ccc(-c2ccccc2Cl)cn1)Nc1cscc1C(=O)O, the melting point was 218 to 223 °C.
For COC(=O)[C@@H]1COC(=S)N1C(=O)c1ccccc1, the melting point was 87.2 to 88 °C.
With COc1ccc2c(c1)sc1nc(Nc3ccccc3)nc(=N)n12 the melting point was 225 to 226 °C.
For CC(C)COC(=O)c1ccc(N)cc1N, the melting point was 54 to 55 °C.
Work on c1ccc2c(c1)CCc1c-2noc1N1CCN(Cc2c[nH]c3ncccc23)CC1 yielded a melting point of 248 to 250 °C.
O=C(Nc1ccc(Oc2ccnc(NC3CCS(=O)(=O)C3)n2)c2ccccc12)c1cc(F)cc(N2CCOCC2)c1 (stereo not drawn) showed a melting point of 150 to 151 °C.
